Data taken from a melting point compilation (Tetko et al.; mined from patent text by program, amines drawn as free bases though some values may be those of a salt).

SMILES	melting point [°C]
COC(=O)c1c2nc3ccccc3c-2[nH]c2ccccc12	152 to 154
CC#CCOc1cc(Oc2cccc(F)c2)ncn1	60.1
Cc1nc2c(Br)cnn2c(Cl)c1CCCl	128 to 130
Cc1cc2nc(O)nc(O)c2s1	> 300
Cn1c(-c2ccccc2)c(CCCl)sc1=O	88 to 90
CCc1cc2c(ccc(=O)n2Cc2ccc(NC(=O)c3ccccc3S(=O)(=O)O)cc2)c(CC)n1	233 to 236
OC1(c2cccn2Cc2ccccc2F)CCN(Cc2ccccc2)CC1	112 to 117
O=C(Cc1ccsc1)N1C(=O)OC[C@@H]1Cc1ccccc1	80 to 81
Oc1ccc(-c2ccc(-c3c(Cc4ccccc4)sc4ccccc34)cc2)cc1Br	54 to 56
CN1CCNCCNCCCNCCNCC1	85 to 87
CC(C)(C)c1cc(Cn2c(=O)n(Cc3cc(C(C)(C)C)c(O)c(C(C)(C)C)c3)c(=O)n(Cc3cc(C(C)(C)C)c(O)c(C(C)(C)C)c3)c2=O)cc(C(C)(C)C)c1O	218 to 219
C#CCOc1ccc2c(C)cc(=O)oc2c1C(=O)C=Cc1ccccc1	140 to 142
Cc1ccccc1-c1nc(-c2ccc(-c3ccccc3)cc2)n[nH]1	165 to 167
O=C(NC1N=C(c2ccccc2)c2ccccc2NC1=O)c1ccc2ccccc2c1 (racemic)	293 to 294
O=C(C1NCCc2occc21)N1CCCC1 (stereo not given)	85 to 86
COC(=O)Cc1cc(OC)ccc1OCc1ccc(OCc2nc(-c3ccccc3)oc2C)cc1	160 to 161
N#Cc1c(Nc2ccccc2)nn(Cc2ccccc2)c1N	139 to 140
Oc1ccc2nccc(Cl)c2c1	223
Cc1nc2nc[nH]c2c(=O)[nH]1	> 300
CC(=O)NNc1c(C)cnc2c(NC(=O)c3c(Cl)cccc3Cl)ccc(C)c12	234 to 238
Cn1c(=O)c(C#N)c(N2CCN(C(=O)c3cccs3)CC2)c2cc(Cl)ccc21	262
COCOc1ccc(-c2ncc3ccc(-c4csc(CN5CCCCC5)c4)nc3n2)cc1	> 268
CC1CC(=O)NN=C1c1ccc(Nc2nc(=O)cc[nH]2)cc1 (stereo not given)	268 to 270

Further lines, results first:

melting point [°C]	SMILES
130	Cn1c(C(=O)N2CCCC2)cc2cc(OCCNCC(O)COc3ccccc3)ccc21 (stereo not given)
120	O=C(c1ccc([N+](=O)[O-])cc1)N1CCC(OCc2ccc(F)cc2)CC1
250 to 251	CCOC(=O)Cn1c(=O)c(=O)[nH]c2cc(C(F)(F)F)ccc21
85	Cc1cc(C)cc(NC(=O)Cc2ccc(OC(C)(C)C(=O)O)cc2)c1
122 to 123	CCOC(=O)C1=C(C)N=C(N)C(CC)(C(=O)OCC)C1c1cccc([N+](=O)[O-])c1 (stereo not given)
109 to 110	CC(=O)c1ccc(C=C(C)c2ccc3c(c2)C(C)(C)CCO3)cc1
225 to 226	Cc1cnc(N2CCC(c3ccc(NS(C)(=O)=O)cc3)CC2)n1C
235 to 237	C=CCc1c2c(cc3c(=O)cc(C(=O)O)oc13)CCCC2
184 to 185	O=C(COc1ccc(-c2ccccc2-c2nn[nH]n2)cc1)C1CC1
55 to 60	CCCNC(=O)C(C)=Cc1ccc2[nH]cc(Cc3ccc(C(=O)OC)cc3OC)c2c1
135	COc1ccc2nc(NCC3CCN(CC4COc5ccccc5O4)CC3)sc2c1 (stereo not given)
83 to 84	CC(C)c1cc(C(=O)CO[C@@H]2C[C@H](C)CC[C@H]2C(C)C)cc(C(C)C)c1O
124 to 126	CC1OC(OCc2ccccc2)C(F)C(O)C1O (stereo not given)
208 to 225	CCNC(=O)c1ccc(N2CCN(Cc3cc4c(c(OC)c3)OCC(=O)N4)CC2)c(C)c1
114 to 115	CCCCC(=O)OCc1cnc(C)c(O)c1
225 to 226	COC(=O)c1cc(S(N)(=O)=O)cc2c1OCCO2
212 to 215	CCCc1c(OCCCS(=O)(=O)c2nc3ccc(C(=O)O)cc3[nH]2)ccc(C(C)=O)c1O
